# Test results from publication PMC5638327, “Comparison of bioavailability and antiplatelet action of ticagrelor in patients with ST-elevation myocardial infarction and non-ST-elevation myocardial infarction: A prospective, observational, single-centre study” (PLoS ONE, 2017).
# B1: abciximab (antibody, chains of the INN, looked up, V domains shown)
# VH: EVQLQQSGTVLARPGASVKMSCEASGYTFTNYWMHWVKQRPGQGLEWIGAIYPGNSDTSYIQKFKGKAKLTAVTSTTSVYMELSSLTNEDSAVYYCTLYDGYYVFAYWGQGTLVTVSA
# VL: EIVLTQSPVTLSVTPGDSVSLSCRASRDISNNLHWFQQTSHESPRLLIKYASQSMSGIPSRFSGSGSGTDFTLSINSVETEDFGMYFCQQTNSWPYTFGGGTKLEIK
# modifications: Fab
# Assays:
# [1] = Pharmacokinetic assessment: plasma concentrations by liquid chromatography tandem mass spectrometry after ticagrelor loading dose; format: in vivo, human (patients with myocardial infarction); conditions: for AUC(0–6) / AUC(0–12): oral 180 mg ticagrelor LD, plasma, median [interquartile range]
# Experimental: Consecutive STEMI and NSTEMI patients admitted to the study site (Cardiology Department, Dr. A. Jurasz University Hospital, Bydgoszcz, Poland) were screened for eligibility. After admission to the study centre, confirmation of the initial diagnosis of STEMI or NSTEMI, and provision of a written informed consent to participate in the trial, all study participants received an oral 300 mg LD of plain aspirin (Polpharma SA, Starogard Gdański, Poland) and 180 mg LD ticagrelor in integral tablets with 250 mL tap water. Subsequently, within 15 minutes of ticagrelor LD, all patients underwent coronary angiography followed by PCI as required. During the periprocedural period, all study participants received unfractionated heparin in body weight adjusted dose according to the European Society of Cardiology (ESC) recommendations. Plasma concentrations of ticagrelor and its active metabolite, as well as their antiplatelet effect, were evaluated according to the sampling schedule employed at our centre in previous PK/PD study (pre-treatment, 0.5 h, 1 h, 2 h, 3 h, 4 h, 6 h and 12 h post ticagrelor LD).
# Blood samples for PK/PD evaluation were obtained from an 18-gauge cannula inserted into one of the forearm veins. The first 5 mL blood was discarded to avoid spontaneous platelet activation. In each patient specimens were collected at the eight pre-defined time. Detailed description of blood sample processing has been published in the study protocol (S1 File).
# Ticagrelor and AR-C124910XX plasma concentrations were analyzed with liquid chromatography coupled with tandem mass spectrometry, using a validated method. Lower limits of quantification were 4.69 ng/mL for both ticagrelor and AR-C124910XX.
# Statistical calculations were performed using the Statistica 12.5 package (StatSoft, Tulsa, OK, USA). Pharmacokinetic calculations and plots were made using the Matlab R2014 software (Mathworks, Natick, MA, USA); trapezoidal rule was applied to calculate AUC. Data for pharmacokinetic features of ticagrelor and AR-C124910XX, pharmacodynamic outcome variables, creatinine, glomerular filtration rate and left ventricle ejection fraction were presented as medians and interquartile ranges. Data for heart rate, systolic and diastolic blood pressure, age and body mass index were presented as means with standard deviations. […] Continuous variables were compared between both study groups with the Student’s t-test and Mann-Whitney U test, depending on the presence or absence of the normal distribution (as assessed by the Shapiro-Wilk test). Comparisons between categorical variables were performed by the chi-square test, with Yates's correction if necessary, or using Fisher's exact test. […]
# Blood samples for pharmacokinetic and phar- infarction; PCI, percutaneous coronary intervention; PD, macodynamic assessment will be drawn at eight prede- pharmacodynamics; PK, pharmacokinetics; STEMI, ﬁned time points according to the blood sampling ST-elevation myocardial infarction. schedule already used at our site in a previous study
# ( pretreatment baseline, 30 min, 1, 2, 3, 4, 6 andsamples will be stored at temperature below −60°C until 12 hours post-ticagrelor LD— as shown in ﬁgure 1). 31 analysed.
# All enrolled patients with ﬁnally unconﬁrmed initial Venous blood for the assessment of pharmacodynam-diagnosis of AMI will be excluded from the primar y ana- ics with the vasodilator-stimulated phosphoprotein lysis. Patients qualiﬁed for urgent coronar y arter y bypass (VASP) assay and multiple electrode aggregometr y surgery within the blood sampling period also will not (MEA) will be collected into trisodium citrate and be included in the analysis. All study participants not hirudin vacuum test tubes, respectively. The ﬁrst 3–5mL receiving PCI will be reported. of blood will be discarded to avoid spontaneous platelet Study population activation. The pharmacodynamic analysis will be per- […]
# [2] = set-up: method as in PMID 20551239; conditions: blood plasma, after ticagrelor; cited from earlier work
# [3] = tested on: platelet reactivity; set-up: method as in PMID 27885888; conditions: STEMI patients, first hour after ticagrelor LD, parenteral; cited from earlier work
# [4] = tested on: platelet reactivity; set-up: method as in PMID 27366874; conditions: STEMI patients on prasugrel with concomitant morphine, intravenous; cited from earlier work
molecule,measurement,setting,value
CCCSc1nc(N[C@@H]2C[C@H]2c2ccc(F)c(F)c2)c2nnn([C@@H]3C[C@H](O)[C@@H](O)[C@H]3O)c2n1 [AR-C124910XX],AUC(0–6),[1]; NSTEMI patients (n = 24),712 [346–1616] ng*h/mL
same,AUC(0–12),[1]; NSTEMI patients,1523 [1005–2867] ng*h/mL
same,AUC(0–6),[1]; STEMI patients (n = 49),473 [0–924] ng*h/mL
same,AUC(0–12),[1]; STEMI patients,1383 [766–2182] ng*h/mL
same,lower AUC(0–6) in STEMI than in NSTEMI patients,[1]; first 6 h after 180 mg ticagrelor LD,34%
same,plasma concentration relative to the main compound,[2],30–40%
CSCCNc1nc(SCCC(F)(F)F)nc2c1ncn2[C@@H]1O[C@H](COP(=O)(O)OP(=O)(O)C(Cl)(Cl)P(=O)(O)O)[C@@H](O)[C@H]1O [cangrelor],effect on platelet reactivity and HPR,[3],markedly reduced platelet reactivity and basically eliminated HPR phenomenon
B1,platelet inhibition,[4],immediate and efficient platelet inhibition
